From patent publication US20140187538A1, “LORCASERIN HYDROCHLORIDE” (DR. REDDY'S LABORATORIES LTD., priority 2012, published 2014)

Test: physical stability of the amorphous solid form (tendency to crystallize over time)
Assay type: physicochemical
Details: solid state; amorphous drug substance alone vs amorphous solid dispersion; crystallization over a period of time

## C[C@H]1CNCCc2ccc(Cl)cc21.Cl [amorphous lorcaserin hydrochloride]
  physical stability: limited physical stability
